# Reference: ChEMBL document CHEMBL5370605, “Discovery of Novel Fedratinib-Based HDAC/JAK/BRD4 Triple Inhibitors with Remarkable Antitumor Activity against Triple Negative Breast Cancer” (J Med Chem, 2023)
# pIC50: −log10 of the molar value.
# What was measured:
# [1] = Cmax in ICR (CD-1) mouse at 10 mg/kg, iv measured for 24 hrs by LC-MS/MS analysis; assay type: ADME, organism-based; design: time 24 hrs, dose 10 mg/kg, route iv; details: in vivo
# [2] = Metabolic stability in mouse liver microsomes assessed as half life in presence of NADPH by LC-MS/MS analysis; assay type: ADME, Microsome
# [3] = Tmax in ICR (CD-1) mouse at 50 mg/kg, ip measured for 24 hrs by LC-MS/MS analysis; assay type: ADME, organism-based; details: in vivo
# Histone deacetylase 11 = target: T1, Histone deacetylase 11 (Homo sapiens, UniProt Q96DB2); assay: Inhibition of HDAC11 (unknown origin) using Ac-ETDKrnyr-AMC as substrate incubated for 30 mins by fluorescence based analysis
# T1 sequence (Q96DB2 whole entry): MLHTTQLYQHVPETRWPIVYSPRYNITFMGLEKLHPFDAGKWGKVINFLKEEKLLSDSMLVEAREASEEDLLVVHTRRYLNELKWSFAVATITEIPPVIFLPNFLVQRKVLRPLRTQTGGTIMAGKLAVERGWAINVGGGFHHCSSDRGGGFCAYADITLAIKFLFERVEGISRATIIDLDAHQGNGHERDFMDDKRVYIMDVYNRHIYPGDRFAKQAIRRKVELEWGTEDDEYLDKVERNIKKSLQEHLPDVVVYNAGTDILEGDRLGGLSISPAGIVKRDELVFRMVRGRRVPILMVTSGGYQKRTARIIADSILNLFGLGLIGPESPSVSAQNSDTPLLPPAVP
# [4] = Half life in ICR (CD-1) mouse at 50 mg/kg, ip measured for 24 hrs by LC-MS/MS analysis; assay type: ADME, organism-based; details: in vivo
# [5] = Bioavailability in ICR (CD-1) mouse at 50 mg/kg, ip measured for 24 hrs by LC-MS/MS analysis; assay type: ADME, organism-based; details: in vivo, ip, 50 mg/kg, 24 h
# [6] = Cmax in ICR (CD-1) mouse at 50 mg/kg, ip measured for 24 hrs by LC-MS/MS analysis; assay type: ADME, organism-based; design: time 24 hrs, dose 50 mg/kg, route ip; details: in vivo
# [7] = Metabolic stability in mouse liver microsomes assessed as intrinsic clearance in presence of NADPH by LC-MS/MS analysis; assay type: ADME, Microsome; details: read-out: CLH
# [8] = target: Proto-oncogene tyrosine-protein kinase receptor Ret (Homo sapiens, UniProt P07949); assay: Inhibition of RET (unknown origin) incubated for 40 mins in presence of ATP by Kinase-glo luminescent assay
# [9] = MRT (0 to t) in ICR (CD-1) mouse at 50 mg/kg, ip measured for 24 hrs by LC-MS/MS analysis; assay type: ADME, organism-based; details: in vivo
# [10] = target: T2, Tyrosine-protein kinase JAK3 (Homo sapiens, UniProt P52333); assay: Inhibition of JAK3 (unknown origin) incubated for 40 mins in presence of ATP by Kinase-glo luminescent assay
# T2 sequence (P52333 whole entry): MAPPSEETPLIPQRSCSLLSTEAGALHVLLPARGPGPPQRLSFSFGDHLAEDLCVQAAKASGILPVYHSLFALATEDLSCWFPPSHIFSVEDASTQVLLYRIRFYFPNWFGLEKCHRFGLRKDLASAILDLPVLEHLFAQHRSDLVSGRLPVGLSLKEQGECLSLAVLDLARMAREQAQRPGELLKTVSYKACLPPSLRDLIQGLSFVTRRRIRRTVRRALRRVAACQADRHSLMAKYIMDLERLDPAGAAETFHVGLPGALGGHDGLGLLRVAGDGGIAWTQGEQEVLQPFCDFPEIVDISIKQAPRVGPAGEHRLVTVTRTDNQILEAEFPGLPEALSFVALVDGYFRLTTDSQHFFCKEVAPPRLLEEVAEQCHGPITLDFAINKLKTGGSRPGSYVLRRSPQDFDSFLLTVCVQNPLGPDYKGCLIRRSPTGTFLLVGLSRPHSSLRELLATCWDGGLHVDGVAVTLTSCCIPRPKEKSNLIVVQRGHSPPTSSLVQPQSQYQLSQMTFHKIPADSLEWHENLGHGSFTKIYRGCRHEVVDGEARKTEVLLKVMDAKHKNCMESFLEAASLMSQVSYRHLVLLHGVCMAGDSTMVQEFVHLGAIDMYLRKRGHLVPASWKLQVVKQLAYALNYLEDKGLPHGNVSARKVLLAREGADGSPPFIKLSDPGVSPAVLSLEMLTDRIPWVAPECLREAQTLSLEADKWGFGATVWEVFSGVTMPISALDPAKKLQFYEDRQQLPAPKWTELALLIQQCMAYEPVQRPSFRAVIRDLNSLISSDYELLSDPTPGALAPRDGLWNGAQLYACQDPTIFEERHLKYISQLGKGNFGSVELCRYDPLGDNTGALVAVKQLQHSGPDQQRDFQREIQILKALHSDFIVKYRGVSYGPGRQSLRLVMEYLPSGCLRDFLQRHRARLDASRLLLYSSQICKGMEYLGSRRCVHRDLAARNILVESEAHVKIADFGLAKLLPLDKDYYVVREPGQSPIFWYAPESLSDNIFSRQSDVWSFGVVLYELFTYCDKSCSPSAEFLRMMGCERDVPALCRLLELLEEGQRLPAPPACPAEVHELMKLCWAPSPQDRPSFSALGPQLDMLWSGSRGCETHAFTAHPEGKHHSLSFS
# Histone deacetylase 8 = target: T3, Histone deacetylase 8 (Homo sapiens, UniProt Q9BY41); assay: Inhibition of HDAC8 (unknown origin) using Boc-Lys-(trifluoroacetyl)-AMC as substrate incubated for 30 mins by fluorescence based analysis
# T3 sequence (Q9BY41 whole entry): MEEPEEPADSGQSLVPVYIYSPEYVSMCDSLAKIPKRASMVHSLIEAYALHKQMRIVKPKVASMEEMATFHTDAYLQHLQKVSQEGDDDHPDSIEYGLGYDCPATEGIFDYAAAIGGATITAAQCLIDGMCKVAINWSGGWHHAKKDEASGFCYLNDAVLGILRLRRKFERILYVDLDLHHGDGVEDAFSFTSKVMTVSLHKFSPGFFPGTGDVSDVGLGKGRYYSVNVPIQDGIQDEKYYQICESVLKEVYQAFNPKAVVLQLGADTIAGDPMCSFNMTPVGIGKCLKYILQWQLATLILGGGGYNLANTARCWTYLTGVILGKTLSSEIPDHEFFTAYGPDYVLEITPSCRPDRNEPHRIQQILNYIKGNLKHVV
# Chain of Proto-oncogene tyrosine-protein kinase receptor Ret (P07949 whole entry): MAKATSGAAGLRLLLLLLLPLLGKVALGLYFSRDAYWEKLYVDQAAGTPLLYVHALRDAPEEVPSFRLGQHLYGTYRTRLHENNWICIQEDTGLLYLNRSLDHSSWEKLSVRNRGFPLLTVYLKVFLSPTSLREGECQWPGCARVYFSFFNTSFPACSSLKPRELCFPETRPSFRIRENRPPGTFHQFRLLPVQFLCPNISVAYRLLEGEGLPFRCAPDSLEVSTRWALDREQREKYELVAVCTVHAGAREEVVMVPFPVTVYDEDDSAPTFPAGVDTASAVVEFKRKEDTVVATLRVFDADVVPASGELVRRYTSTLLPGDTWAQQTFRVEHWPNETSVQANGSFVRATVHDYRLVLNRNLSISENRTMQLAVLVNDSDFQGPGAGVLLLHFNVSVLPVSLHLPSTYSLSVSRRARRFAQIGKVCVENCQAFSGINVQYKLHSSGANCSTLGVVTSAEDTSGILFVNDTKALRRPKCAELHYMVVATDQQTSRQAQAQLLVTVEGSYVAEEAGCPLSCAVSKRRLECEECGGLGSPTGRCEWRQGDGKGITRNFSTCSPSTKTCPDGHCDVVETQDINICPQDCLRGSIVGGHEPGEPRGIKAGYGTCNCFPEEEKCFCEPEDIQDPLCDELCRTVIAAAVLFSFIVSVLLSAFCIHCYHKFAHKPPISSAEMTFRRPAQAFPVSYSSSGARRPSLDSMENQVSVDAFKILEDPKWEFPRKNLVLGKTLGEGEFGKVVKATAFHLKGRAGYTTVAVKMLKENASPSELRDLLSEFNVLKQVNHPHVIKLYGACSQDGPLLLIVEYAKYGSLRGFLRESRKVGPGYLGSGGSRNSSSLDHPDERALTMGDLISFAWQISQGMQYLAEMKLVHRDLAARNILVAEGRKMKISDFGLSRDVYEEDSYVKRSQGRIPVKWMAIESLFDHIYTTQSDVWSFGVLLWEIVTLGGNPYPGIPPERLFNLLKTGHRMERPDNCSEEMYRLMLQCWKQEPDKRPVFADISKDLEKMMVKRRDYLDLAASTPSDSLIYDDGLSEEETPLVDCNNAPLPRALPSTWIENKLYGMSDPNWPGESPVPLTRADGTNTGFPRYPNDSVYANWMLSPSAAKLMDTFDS
smiles,measurement,setting,value
Cc1cnc(Nc2ccc(OCCN3CCCC3)cc2)nc1Nc1ccc(C(=O)NO)cc1,Cmax,[1],4730 ng/mL
same,half-life,[2],0.625 h
same,Tmax,[3],0.19 h
same,pIC50,Histone deacetylase 11,< 5.30
same,half-life,[4],2.51 h
same,F,[5],151%
same,Cmax,[6],9560 ng/mL
same,CLint scaled,[7],146 mL/min/kg
same,pIC50,[8],7.33
same,MRT last at 24 h,[9],2.18 h
same,pIC50,[10],7.04
same,pIC50,Histone deacetylase 8,6.80
